Test results: PubChem BioAssay AID2823 (Broad Institute, 2010)
Calls of active or inactive are those of the source. No rule for the calls is given here.

molecular target: RanGTP-importin-beta complex (human Ran / KPNB1); experiment: disruptors of RanGTP/KPNB1 binding – biochemical, FRET, CFP/YFP, cell-free homogeneous, confirmation (AID 2823); settings: CFP-Ran/YFP-importin-beta FRET ratio

Compound	IC50
Cc1ccc(-c2cc3nc(-c4ccccc4)cc(N4CCC5(CC4)OCCO5)n3n2)cc1	44 µM
Cc1ccc(CNC(=O)c2cccnc2)cc1	> 50 µM (inactive)
Cc1ccc2cc(C#N)c(NCCNC(=O)C3CCC3)nc2c1C	> 50 µM (inactive)
CCN1C(=S)SC(=O)C1=C1C=C(C)N(Cc2ccco2)C(C)=C1	11.1 µM
COc1ccc(N2C(=O)CC(C#N)=C2N)cc1	> 50 µM (inactive)
Cc1cc(N2C(=O)C(O)=C(C(=O)c3cc4ccccc4o3)C2c2cccc(Cl)c2)no1 (stereo unspecified)	36 µM
COc1c2ccccc2nc2ccccc12	8.46 µM
COc1ccccc1C#Cc1ccc2c(=O)c3ccccc3n(C)c2c1	0.698 µM
CCN1/C(=C\C=C\C2=[N+](CC)c3ccccc3C2(C)C)C(C)(C)c2ccccc21	9.18 µM
Cc1cccn2c(=O)c(/C=C(\C#N)C(=O)NC3CCS(=O)(=O)C3)c(Oc3ccc(F)cc3)nc12 (stereo unspecified)	15.6 µM
CCc1ccc(C(=O)c2cc3ccc(O)cc3oc2=O)cc1	11.7 µM
COc1ccccc1C(=O)c1cc2ccc(O)cc2oc1=O	5.1 µM
Cc1ccc(C2C(C#N)=C(N)N(c3cccnc3)C3=C2C(=O)CCC3)c(C)c1 (stereo unspecified)	> 50 µM (inactive)
N#Cc1cc2cc3c(cc2nc1N1CCOCC1)OCO3	12.2 µM
COc1ccc(CCNc2oc(-c3ccco3)nc2C#N)cc1	> 50 µM (inactive)
COC(=O)C1=CN(Cc2cccs2)C=C(C(=O)OC)C1c1ccc(OC)cc1OC	6.08 µM
CC(C)OCCCNC(=O)CCSc1ccc(Cl)cc1	> 50 µM (inactive)
C#CCOc1ccc(C2C3=C(CC(C)(C)CC3=O)N(CC(=O)O)C3=C2C(=O)CC(C)(C)C3)cc1OC	32 µM
Cc1cnc(C(=O)Nc2ccc(S(=O)(=O)N(C(C)C)C(C)C)cc2)cn1	> 50 µM (inactive)
CC1(C)CC(=O)C=C(Nc2ccccc2F)C1	> 50 µM (inactive)
CCc1c(C)c2cc(Cl)c(O)c(CN(CC)CC)c2oc1=O	22 µM
Cc1cccc2cc(C#N)c(NCCNC(=S)NCCCN3CCOCC3)nc12	39.6 µM

Compound	IC50
CC(C)SCC(=O)Nc1ncc2c(n1)-c1ccccc1CC2	10.1 µM
Oc1cccc(/C=N/Nc2cc(N3CCCC3)nc(N3CCCC3)n2)c1	> 50 µM (inactive)
COC(=O)C1=CN(Cc2ccc(OC)c(OC)c2)C=C(C(=O)OC)C1c1cccc(O)c1	14.3 µM
Cc1cc2c(c(=O)n1CC1CCCO1)C(c1ccco1)C(C#N)=C(N)O2 (stereo unspecified)	20.9 µM
CC1=C(C(=O)OC(C)C)C(c2cccnc2)C2=C(CC(C)(C)CC2=O)N1 (stereo unspecified)	20.5 µM
CCOC(=O)c1c(NC(=O)C2CCCCC2)sc2c1CCN(C(C)C)C2	> 50 µM (inactive)
Cc1ccc(N=Cc2cc3c(cc2O)OC(N)=C(C#N)C3c2ccccc2)cc1 (stereo unspecified)	> 50 µM (inactive)
COc1cc(OC)cc(-c2cc3nc(C)cc(N4CCN(C(=O)c5ccco5)CC4)n3n2)c1	4.91 µM
COc1ccc2cc(-c3nc4ccccc4n3C)c(=O)oc2c1	19.1 µM
NNC(=O)c1cc2nc(-c3cccs3)cc(C(F)(F)F)n2n1	> 50 µM (inactive)
Cc1cccc(NS(=O)(=O)c2ccc(C(=O)N3CCCCCC3)cc2)c1C	> 50 µM (inactive)
Cc1ccc(C(=O)NCc2ccco2)cc1S(=O)(=O)N1CCOCC1	> 50 µM (inactive)
CCCn1c(=N)c(C(=O)NCc2ccc3c(c2)OCO3)cc2c(=O)n3cccc(C)c3nc21	10.2 µM
COc1ccc(Oc2nc3c(C)cccn3c(=O)c2/C=C(\C#N)C(N)=O)cc1	9.6 µM
COC(=O)C1=C(C)NC2=C(C(=O)CCC2)C1c1cccc(C)n1 (stereo unspecified)	25.5 µM
Cc1ccccc1NC(=O)/C(C#N)=C\c1cn(CC(=O)O)c2ccccc12	47.6 µM
Cc1cc(NC(=O)c2sc3ccccc3c2O)no1	26.3 µM
O=c1cc(N2CCN(Cc3ccccc3)CC2)[nH]c(=O)n1-c1ccc(Br)cc1	> 50 µM (inactive)
CN(C)c1oc(-c2cccs2)nc1C#N	> 50 µM (inactive)
N#CC1=C(N)SC(N)=C(C#N)C1c1cccc(Oc2ccccc2)c1	> 50 µM (inactive)
CCN(CCO)C(=S)Nc1cc(C(=O)OC)ccc1C(=O)OC	> 50 µM (inactive)
CCC1(C(=O)OC)NC(c2cccc(F)c2)C2C(=O)N(C)C(=O)C21 (stereo unspecified)	> 50 µM (inactive)

Compound	IC50
C/C(=C\C(=O)C(F)(F)F)Nc1ccc(C(F)(F)F)cc1	> 50 µM (inactive)
O=C(Nc1cccc(OC(=O)N2CCCCC2)c1)N1CCCCC1	> 50 µM (inactive)
COc1cccc(NC(=O)Nc2ccc3c(c2)N(C)C(=O)CS3)c1	> 50 µM (inactive)
Cc1ccc(S(=O)(=O)N2CCCN(c3nc4cc(C)ccc4cc3C#N)CC2)cc1	29.8 µM
CCOC(=O)/C(C#N)=C1/C=Nc2ccccc2N1	> 50 µM (inactive)
C=CCN1CCc2cccc3c2[C@H]1Cc1ccc(O)c(O)c1-3	> 50 µM (inactive)
CCN1CCc2c(sc(NC(=O)Cc3ccccc3)c2C(=O)OC)C1	> 50 µM (inactive)
O=C(Oc1c(Br)cc(C(=S)N2CCOCC2)cc1Br)c1ccc(Cl)cc1	> 50 µM (inactive)
c1ccc(Nc2nc3ccccc3n3nnnc23)cc1	27.7 µM
COc1ccc2cc(C(C)=O)c(=O)oc2c1	32.2 µM
Cc1ccc2cc(C#N)c(N3CCCN(C(=O)C4CCCO4)CC3)nc2c1 (stereo unspecified)	20.5 µM
COc1ccc(-c2cc(C(=O)O)nc3ccc4ccccc4c23)cc1OC	> 50 µM (inactive)
CCn1c2ccccc2c2cc(NC(=O)CNC)ccc21	> 50 µM (inactive)
CCOC(=O)c1c(NC(=O)C2CCCCC2)sc2c1CCN(CC)C2	> 50 µM (inactive)
Cc1cc(/C=c2/sc3nc4ccccc4n3c2=O)c(C)n1-c1ccccn1	> 50 µM (inactive)
COc1ccc(C2NC(=S)NC3=C2CCCC3=C2SCCS2)cc1 (stereo unspecified)	> 50 µM (inactive)
O=C(COC(=O)c1cccnc1Nc1ccccc1F)NCCN1C(=O)CSC1=O	> 50 µM (inactive)
NC(=S)Cc1nc(-c2ccc(Cl)cc2)cs1	> 50 µM (inactive)
CCOC(=O)C1(CCc2ccccc2)CCN(Cc2ccccn2)CC1	> 50 µM (inactive)
Cc1ccc(/C=C2/C(=O)c3ccc(C(=O)O)cc3C2=O)o1	> 50 µM (inactive)
CCN(CC)S(=O)(=O)c1ccc(/C=C/C(=O)Nc2ccc(F)cc2F)cc1	> 50 µM (inactive)
O=C1C(=O)N(CCS(=O)(=O)c2ccccc2)c2ccc(Cl)cc21	> 50 µM (inactive)

Compound	IC50
COc1ccccc1C1CC(c2ccc(Cl)cc2)Nc2nc(N)nn21 (stereo unspecified)	> 50 µM (inactive)
c1c2c(cc3sc(N4CCOCC4)nc13)OCCO2	> 50 µM (inactive)
CCOc1ccc(C2C(C(=O)OC)=CN(CCOC)C=C2C(=O)OC)cc1	13.1 µM
COC(=O)c1ccc(NC(=O)C(=O)N2CCN(C(=S)Nc3ccccc3OC)CC2)cc1	> 50 µM (inactive)
CCOc1ccc(C)cc1S(=O)(=O)Nc1ccc(Cl)cn1	> 50 µM (inactive)
COc1cc(NC(=O)C2CC2)c(OC)cc1NC(=O)c1ccco1	> 50 µM (inactive)
Cc1ccc2nc(N3CCN(C(=O)c4ccc(F)cc4)CC3)c(C#N)cc2c1	23.3 µM
CCCCN(C)C(=O)c1cccc(OC2CCN(CC(C)(C)C)CC2)c1	> 50 µM (inactive)
CCOC(=O)c1sc(NC(=O)Nc2ccc(F)cc2)nc1C	> 50 µM (inactive)
N=c1c(S(=O)(=O)c2ccc(Cl)cc2)cc2c(=O)n3ccccc3nc2n1Cc1cccnc1	> 50 µM (inactive)
CC#CC(=O)N1CCC(C(=O)Nc2ccc(Oc3ccccc3)nc2)CC1	> 50 µM (inactive)
Cc1cccc(OCC(=O)NNc2c3ccccc3nc3ccccc23)c1	> 50 µM (inactive)
COc1ccccc1C1C(C(N)=O)=C(C)Nc2ncnn21 (stereo unspecified)	> 50 µM (inactive)
CCn1nc(NC(=O)c2ccccn2)c2cc3cccc(C)c3nc21	2.68 µM
COc1cc2c(cc1NC(=S)Nc1cccc3ccccc13)oc1ccccc12	> 50 µM (inactive)
O=C(COC(=O)c1ccc2ccccc2c1)NCCCc1ccccc1	> 50 µM (inactive)
COc1ccc(C2NCCc3c2[nH]c2ccccc32)cc1COc1ccc(F)cc1 (stereo unspecified)	> 50 µM (inactive)
CC(C)Cc1ccc(CN2CCC(n3nccc3NC(=O)C3CCCC3)CC2)cc1	> 50 µM (inactive)
CCOC(=O)c1sc(NC(=O)CSc2nc(C)cc(C)n2)c(C#N)c1C	> 50 µM (inactive)
COCCN1C=C(C(=O)OC)C(c2cc(Br)c(OC)c(OC)c2)C(C(=O)OC)=C1	21.4 µM
Cc1ccc(Cl)cc1N1C(=O)CC(Sc2ncccn2)C1=O (stereo unspecified)	> 50 µM (inactive)
CN(C)/C=N/c1nc2nccc(-c3cccs3)n2n1	38.5 µM

Compound	IC50
O=C(Cc1n[nH]c(=O)c2ccccc12)NCc1ccccn1	> 50 µM (inactive)
Cc1cccc(C)c1NC(=O)C1c2cccc[n+]2CC(=O)N1Cc1cccs1 (stereo unspecified)	> 50 µM (inactive)
O=C(CN1CC(=O)Oc2ccccc21)NCc1ccco1	> 50 µM (inactive)
COc1ccc(C(=O)/C=C/Nc2cccc(C)n2)cc1OC	22.8 µM
O=C(NCC1CCN(Cc2ccccc2Cl)CC1)Nc1ccccc1F	> 50 µM (inactive)
Cc1c(O)ccc2c3c(c(=O)oc12)CCC(C)C3 (stereo unspecified)	11.9 µM
Cc1ccc(-n2c(=O)c(C#N)cc3c(=O)n4ccccc4nc32)cc1	1.99 µM
CCCc1c2ccccc2nc2ccccc12	8.26 µM
CC(=O)c1c(N2CCN(C)CC2)nc(=S)n(-c2cc(C)ccc2C)c1C	> 50 µM (inactive)
Cc1csc2ncnc(NC3CCN(Cc4ccccc4)CC3)c12	> 50 µM (inactive)
Oc1nc(Nc2ccccc2)sc1/C=C1\C=Nc2ccccc21	> 50 µM (inactive)
CCc1c(C)c2cc(Cl)c(O)c(CN3CCCCC3)c2oc1=O	22.9 µM
CC1Cc2cc(/C(O)=C3/C(=O)C(=O)N(Cc4ccncc4)C3c3ccc(N(C)C)cc3)ccc2O1 (stereo unspecified)	> 50 µM (inactive)
Cc1cc(NC(=O)c2c(F)c(F)c(F)c(F)c2F)no1	> 50 µM (inactive)
Clc1ccc(/C=C\c2nccc3c2[nH]c2ccccc23)cc1	> 50 µM (inactive)
COC(=O)C1=CN(Cc2ccccc2)C=C(C(=O)OC)C1c1cc(F)ccc1F	15.9 µM
Cn1nnnc1SCC(=O)Nc1nn(-c2ccccc2)nc1C(N)=O	> 50 µM (inactive)
O=C1CC(/C=C/c2ccco2)=Nc2ccccc2N1	> 50 µM (inactive)
